Results taken from ChEMBL document CHEMBL4808236, “New phorbol ester derivatives as potent anti-HIV agents” (Bioorg Med Chem Lett, 2021).

Experiments:
[1] = test system: Human immunodeficiency virus 1; test: Antiviral activity against HIV-1 NL4-3 infected in human MT4 cells assessed as reduction in p24 production treated at 48 hrs post-infection and measured on day 4 post-viral infection by ELISA; assay type: functional, organism-based; settings: Human immunodeficiency virus 1, NL4-3, MT4
MDA-MB-231 = test: Antiproliferative activity against human MDA-MB-231 cells assessed as reduction in cell viability measured after 72 hrs by SRB assay; assay type: functional, cell-based; settings: MDA-MB-231, 72 h
[2] = Selectivity index, ratio of CC75 for cytotoxicity against human MT4 cells to IC50 for antiviral activity against HIV-1 NL4-3 infected in human MT4 cells; assay type: toxicity, cell-based; settings: read-out: Selectivity Index
KB = test: Antiproliferative activity against human KB cells assessed as reduction in cell viability measured after 72 hrs by SRB assay; assay type: functional, cell-based
MT4 = test: Cytotoxicity against human MT4 cells assessed as reduction in cell viability by CellTiter-Glo luminescence assay; assay type: cell-based
A549 = test: Antiproliferative activity against human A549 cells assessed as reduction in cell viability measured after 72 hrs by SRB assay; settings: A549, 72 h
[3] = Antiproliferative activity against human KB-VIN cells assessed as reduction in cell viability after 72 hrs by SRB assay; assay type: functional, cell-based; settings: KBVIN
MCF7 = test: Antiproliferative activity against human MCF7 cells assessed as reduction in cell viability measured after 72 hrs by SRB assay; assay type: functional, cell-based; settings: MCF7, 72 h

CC/C=C/C/C=C/C/C=C/C/C=C/C/C=C/CCCC(=O)O[C@@H]1[C@@H](C)[C@@]2(O)[C@@H](C=C(CO)C[C@]3(O)C(=O)C(C)=C[C@@H]23)[C@@H]2C(C)(C)[C@]12OC(=O)CCC
IC50 [1]: 0.00227 µM | IC50 (MDA-MB-231): > 10 µM | selectivity ratio [2]: > 1500 | IC50 (KB): > 10 µM | CC75 (MT4): > 5 µM | IC50 (A549): > 10 µM | IC50 [3]: > 10 µM | IC50 (MCF7): > 10 µM

CC(=O)O[C@@]12[C@H](OC(=O)/C=C/c3ccccc3)[C@@H](C)[C@@]3(O)[C@@H](C=C(CO)C[C@]4(O)C(=O)C(C)=C[C@@H]34)[C@@H]1C2(C)C
IC50 [1]: 0.0031 µM | IC50 (MDA-MB-231): > 10 µM | selectivity ratio [2]: > 1500 | IC50 (KB): > 10 µM | CC75 (MT4): > 5 µM | IC50 (A549): > 10 µM | IC50 [3]: > 10 µM | IC50 (MCF7): > 10 µM

CCCC(=O)OCC1=C[C@H]2[C@@H]3C(C)(C)[C@]3(OC(=O)CCC)[C@H](O)[C@@H](C)[C@]2(O)[C@@H]2C=C(C)C(=O)[C@@]2(O)C1
CC75 (MT4): > 5 µM

C/C=C(/C)C(=O)O[C@]12C([C@@H]3C=C(CO)C[C@]4(O)C(=O)C(C)=C[C@H]4[C@@]3(O)[C@H](C)[C@H]1O)C2(C)C (single isomer, unassigned)
IC50 [1]: > 10 µM | IC50 (MDA-MB-231): > 10 µM | IC50 (KB): > 10 µM | CC75 (MT4): > 5 µM | IC50 (A549): > 10 µM | IC50 [3]: > 10 µM | IC50 (MCF7): > 10 µM

CC1=C[C@H]2[C@@]3(O)[C@H](C)[C@@H](O)[C@]4(OC(=O)/C=C/c5ccccc5)C([C@@H]3C=C(CO)C[C@]2(O)C1=O)C4(C)C (single isomer, unassigned)
IC50 [1]: > 10 µM | IC50 (MDA-MB-231): > 10 µM | IC50 (KB): > 10 µM | CC75 (MT4): > 5 µM | IC50 (A549): > 10 µM | IC50 [3]: > 10 µM | IC50 (MCF7): > 10 µM

CC/C=C/C/C=C/C/C=C/C/C=C/C/C=C/CCCC(=O)O[C@]12C([C@@H]3C=C(CO)C[C@]4(O)C(=O)C(C)=C[C@H]4[C@@]3(O)[C@H](C)[C@H]1O)C2(C)C (single isomer, unassigned)
IC50 [1]: 0.0623 µM | IC50 (MDA-MB-231): 1.99 µM | selectivity ratio [2]: > 50 | IC50 (KB): > 10 µM | CC75 (MT4): > 5 µM | IC50 (A549): 0.09 µM | IC50 [3]: > 10 µM | IC50 (MCF7): > 10 µM

CCCC(=O)OCC1=C[C@H]2C3C(C)(C)[C@]3(OC(=O)CCC)[C@H](OC(=O)/C=C/c3ccccc3)[C@@H](C)[C@]2(O)[C@@H]2C=C(C)C(=O)[C@@]2(O)C1 (single isomer, unassigned)
IC50 [1]: 0.0733 µM | IC50 (MDA-MB-231): 6.3 µM | IC50 (KB): > 10 µM | CC75 (MT4): > 5 µM | IC50 (A549): 3.27 µM | IC50 [3]: > 10 µM | IC50 (MCF7): > 10 µM

CC1=C[C@H]2[C@@]3(O)[C@H](C)[C@@H](O)[C@]4(OC(=O)CCc5ccccc5)C([C@@H]3C=C(CO)C[C@]2(O)C1=O)C4(C)C (single isomer, unassigned)
IC50 [1]: 5.46 µM | IC50 (MDA-MB-231): > 10 µM | IC50 (KB): > 10 µM | CC75 (MT4): > 10 µM | IC50 (A549): > 10 µM | IC50 [3]: > 10 µM | IC50 (MCF7): > 10 µM

COc1cc(/C=C/C(=O)O[C@]23C([C@@H]4C=C(CO)C[C@]5(O)C(=O)C(C)=C[C@H]5[C@@]4(O)[C@H](C)[C@H]2O)C3(C)C)ccc1C(C)=O (single isomer, unassigned)
IC50 [1]: > 10 µM | IC50 (MDA-MB-231): > 10 µM | IC50 (KB): > 10 µM | CC75 (MT4): > 5 µM | IC50 (A549): > 10 µM | IC50 [3]: > 10 µM | IC50 (MCF7): > 10 µM

C/C=C/C(=O)OCC1=C[C@H]2C3C(C)(C)[C@]3(OC(=O)/C=C/C)[C@H](O)[C@@H](C)[C@]2(O)[C@@H]2C=C(C)C(=O)[C@@]2(O)C1 (single isomer, unassigned)
IC50 [1]: > 10 µM | IC50 (MDA-MB-231): 6.7 µM | IC50 (KB): > 10 µM | CC75 (MT4): > 5 µM | IC50 (A549): 6.22 µM | IC50 [3]: > 10 µM | IC50 (MCF7): > 10 µM

C/C=C/C(=O)O[C@]12C([C@@H]3C=C(CO)C[C@]4(O)C(=O)C(C)=C[C@H]4[C@@]3(O)[C@H](C)[C@H]1O)C2(C)C (single isomer, unassigned)
IC50 [1]: > 10 µM | IC50 (MDA-MB-231): > 10 µM | IC50 (KB): > 10 µM | CC75 (MT4): > 5 µM | IC50 (A549): > 10 µM | IC50 [3]: > 10 µM | IC50 (MCF7): > 10 µM

CC(=O)O[C@H]1C(=O)[C@@]2(C)[C@H]([C@H](OC(=O)c3ccccc3)[C@]3(O)C[C@H](OC(=O)[C@H](O)[C@@H](NC(=O)c4ccccc4)c4ccccc4)C(C)=C1C3(C)C)[C@]1(OC(C)=O)CO[C@@H]1C[C@@H]2O [PACLITAXEL]
IC50 (MDA-MB-231): 0.008 µM | IC50 (KB): 0.008 µM | IC50 [3]: 2.54 µM | IC50 (MCF7): 0.015 µM

Cc1cn([C@H]2C[C@H](N=[N+]=[N-])[C@@H](CO)O2)c(=O)[nH]c1=O [ZIDOVUDINE]
IC50 [1]: 0.0169 µM | CC75 (MT4): > 0.37 µM
